# Data from patent US20090311344A1, “Dosing Regimen” (priority 2008, published 2009).
# Test: Multiple dose study in cancer subjects: treatment-emergent (serious) adverse events
# Method: 46 subjects with cancer receiving platinum-based therapies were enrolled into 3 cohorts (N=16 in Cohort 1, 14 in Cohort 2, and 16 in Cohort 3). The subjects received the TPO mimetic peptide compound or placebo within 2 hours prior to the platinum-based chemotherapy on Day 1 of the first 2 cycles with a 21-day interval between each cycle. In addition to the Day 1 administration, gemcitabine administration was permitted on Day 8 of each cycle. Other chemotherapy medications were limited to dosing on Day 1 of each cycle only. Subjects were followed up for a total of 4 cycles of chemotherapy. Chemotherapy regimen continued beyond the first 4 cycles as per standard of care therapy. In the first cohort, 12 subjects received 1.5 μg/kg the TPO mimetic peptide compound and 4 subjects received placebo. In the second cohort 10 subjects received 3.0 μg/kg the TPO mimetic peptide compound and 4 subjects received placebo. In the third cohort, 12 subjects received 2.25 μg/kg the TPO mimetic peptide compound and 4 subjects received placebo. […] Therefore, a third cohort at a lower dose (2.25 μg/kg) was added to collect additional safety, tolerability, PD, and PK data.
substance,measurement,setting,value
Methoxypolyethyleneglycol20000-propionyl-L-Isoleucyl-L-Glutamyl-Glycyl-L-Prolyl-L-Threonyl-L-Leucyl-L-Arginyl-L-Glutaminyl-L-2-Naphthylalanyl-L-Leucyl-L-Alanyl-L-Alanyl-L-Arginyl-Sarcosyl-Ne-(methoxypolyethyleneglycol20000-propionyl-L-Isoleucyl-L-Glutamyl-Glycyl-L-Prolyl-L-Threonyl-L-Leucyl-L-Arginyl-L-Glutaminyl-L-2-Naphthylalanyl-L-Leucyl-L-Alanyl-L-Alanyl-L-Arginyl-Sarcosyl-)-Lysinamide [TPO mimetic peptide compound],Adverse event: Fatigue,"3.0 ug/kg, n of N = 10",4
same,Adverse event: Febrile neutropenia,"3.0 ug/kg, n of N = 10",0
same,Adverse event: Folliculitis,"3.0 ug/kg, n of N = 10",0
same,Adverse event: Gastrointestinal disorders,"3.0 ug/kg, n of N = 10",6
same,Adverse event: General disorders and administration site conditions,"3.0 ug/kg, n of N = 10",6
same,Adverse event: General physical health deterioration,"3.0 ug/kg, n of N = 10",0
same,Adverse event: Haematocrit decreased,"3.0 ug/kg, n of N = 10",1
same,Adverse event: Headache,"3.0 ug/kg, n of N = 10",1
same,Adverse event: Hemorrhoids,"3.0 ug/kg, n of N = 10",0
same,Adverse event: Hepatobiliary disorders,"3.0 ug/kg, n of N = 10",0
same,Adverse event: Hiccups,"3.0 ug/kg, n of N = 10",0
same,Adverse event: Hyperbilirubinaemia,"3.0 ug/kg, n of N = 10",0
same,Adverse event: Hypersensitivity,"3.0 ug/kg, n of N = 10",1
same,Adverse event: Hypertension,"3.0 ug/kg, n of N = 10",0
same,Adverse event: Hypoalbuminaemia,"3.0 ug/kg, n of N = 10",0
same,Adverse event: Hypocalcaemia,"3.0 ug/kg, n of N = 10",0
same,Adverse event: Hypokalaemia,"3.0 ug/kg, n of N = 10",0
same,Adverse event: Hypomagnesaemia,"3.0 ug/kg, n of N = 10",0
same,Adverse event: Hyponatraemia,"3.0 ug/kg, n of N = 10",0
same,Adverse event: Hypophosphataemia,"3.0 ug/kg, n of N = 10",0
same,Adverse event: Immune system disorders,"3.0 ug/kg, n of N = 10",1
same,Adverse event: Insomnia,"3.0 ug/kg, n of N = 10",1
same,Adverse event: Investigations,"3.0 ug/kg, n of N = 10",4
same,Adverse event: Leukocytosis,"3.0 ug/kg, n of N = 10",1
same,Adverse event: Leukopenia,"3.0 ug/kg, n of N = 10",2
same,Adverse event: Lung abscess,"3.0 ug/kg, n of N = 10",0
same,Adverse event: Lymphopenia,"3.0 ug/kg, n of N = 10",0
same,Adverse event: Metabolism and nutrition disorders,"3.0 ug/kg, n of N = 10",3
same,Adverse event: Mucosal inflammation,"3.0 ug/kg, n of N = 10",0
same,Adverse event: Musculoskeletal and connective tissue disorders,"3.0 ug/kg, n of N = 10",2
same,Adverse event: Nausea,"3.0 ug/kg, n of N = 10",2
same,"Adverse event: Neoplasms benign, malignant and unspecified (incl cysts and polyps)","3.0 ug/kg, n of N = 10",0
same,Adverse event: Nervous system disorders,"3.0 ug/kg, n of N = 10",2
same,Adverse event: Neuropathy peripheral,"3.0 ug/kg, n of N = 10",0
same,Adverse event: Neutropenia,"3.0 ug/kg, n of N = 10",3
same,Adverse event: Oedema,"3.0 ug/kg, n of N = 10",1
same,Adverse event: Oedema peripheral,"3.0 ug/kg, n of N = 10",0
same,Adverse event: Pain,"3.0 ug/kg, n of N = 10",0
same,Adverse event: Pain in extremity,"3.0 ug/kg, n of N = 10",1
same,Adverse event: Paraesthesia,"3.0 ug/kg, n of N = 10",1
same,Adverse event: Peripheral motor neuropathy,"3.0 ug/kg, n of N = 10",0
same,Adverse event: Peripheral sensory neuropathy,"3.0 ug/kg, n of N = 10",0
same,Adverse event: Platelet count decreased,"3.0 ug/kg, n of N = 10",0
same,Adverse event: Psychiatric disorders,"3.0 ug/kg, n of N = 10",1
same,Adverse event: Pyrexia,"3.0 ug/kg, n of N = 10",2
same,Adverse event: Rash,"3.0 ug/kg, n of N = 10",0
same,Adverse event: Renal and urinary disorders,"3.0 ug/kg, n of N = 10",0
same,Adverse event: Respiratory failure,"3.0 ug/kg, n of N = 10",0
same,"Adverse event: Respiratory, thoracic and mediastinal disorders","3.0 ug/kg, n of N = 10",1
same,Adverse event: Skin and subcutaneous tissue disorders,"3.0 ug/kg, n of N = 10",3
same,Adverse event: Stomatitis,"3.0 ug/kg, n of N = 10",0
same,Adverse event: Tachycardia,"3.0 ug/kg, n of N = 10",0
same,Adverse event: Thrombocythaemia,"3.0 ug/kg, n of N = 10",0
same,Adverse event: Thrombocytopenia,"3.0 ug/kg, n of N = 10",2
same,Adverse event: Tinnitus,"3.0 ug/kg, n of N = 10",1
same,Adverse event: Vascular disorders,"3.0 ug/kg, n of N = 10",0
same,Adverse event: Vomiting,"3.0 ug/kg, n of N = 10",2
same,Adverse event: Weight decreased,"3.0 ug/kg, n of N = 10",0
same,Serious adverse event: Abdominal pain,"3.0 ug/kg, n of N = 10",0
same,Serious adverse event: Acute myocardial infarction,"3.0 ug/kg, n of N = 10",0
same,Serious adverse event: Anorexia,"3.0 ug/kg, n of N = 10",0
same,Serious adverse event: Atrial fibrillation,"3.0 ug/kg, n of N = 10",0
same,Serious adverse event: Blood and lymphatic system disorders,"3.0 ug/kg, n of N = 10",0
same,Serious adverse event: Blood creatinine increased,"3.0 ug/kg, n of N = 10",0
same,Serious adverse event: Cardiac disorders,"3.0 ug/kg, n of N = 10",0
same,Serious adverse event: Cardiac failure,"3.0 ug/kg, n of N = 10",0
same,Serious adverse event: Dehydration,"3.0 ug/kg, n of N = 10",0
same,Serious adverse event: Dyspnoea,"3.0 ug/kg, n of N = 10",0
same,Serious adverse event: Fatigue,"3.0 ug/kg, n of N = 10",0
same,Serious adverse event: Febrile neutropenia,"3.0 ug/kg, n of N = 10",0
same,Serious adverse event: Gastrointestinal disorders,"3.0 ug/kg, n of N = 10",0
same,Serious adverse event: General disorders and administration site conditions,"3.0 ug/kg, n of N = 10",0
same,Serious adverse event: Hyponatraemia,"3.0 ug/kg, n of N = 10",0
same,Serious adverse event: Investigations,"3.0 ug/kg, n of N = 10",0
same,Serious adverse event: Lung abscess,"3.0 ug/kg, n of N = 10",0
same,Serious adverse event: Metabolism and nutrition disorders,"3.0 ug/kg, n of N = 10",0
same,Serious adverse event: Nausea,"3.0 ug/kg, n of N = 10",0
same,Serious adverse event: Neutropenia,"3.0 ug/kg, n of N = 10",0
same,Serious adverse event: Pain,"3.0 ug/kg, n of N = 10",0
same,Serious adverse event: Pyrexia,"3.0 ug/kg, n of N = 10",0
same,Serious adverse event: Respiratory failure,"3.0 ug/kg, n of N = 10",0
same,"Serious adverse event: Respiratory, thoracic and mediastinal disorders","3.0 ug/kg, n of N = 10",0
same,Serious adverse event: Thrombocythaemia,"3.0 ug/kg, n of N = 10",0
same,Serious adverse event: Thrombocytopenia,"3.0 ug/kg, n of N = 10",0
same,Serious adverse event: Vomiting,"3.0 ug/kg, n of N = 10",0
same,Total no. subjects WITH ADVERSE EVENTS,"3.0 ug/kg, n of N = 10",9
same,Total no. subjects WITH SERIOUS ADVERSE EVENTS,"3.0 ug/kg, n of N = 10",0
same,relation of adverse events to dose,"1.5, 2.25, 3.0 μg/kg",did not appear to be related to increasing doses
same,relatedness of all other SAEs to the compound,"human, in vivo",unrelated
same,relatedness of the SAE thrombocythemia to the compound,one subject,very likely
